Source: US20100204265A1 (priority 2009, published 2010)

What follows are compounds tested on ET (Huh-lucubineo-ET) cell line harboring I389luc-ubi-neo/NS3-3′/ET HCV replicon (assay: Replicon assay (HCV replicon, luciferase readout)). Conditions: Hepatitis C virus.
Format: cell-based
In short: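 Compounds at 10-point 2-fold dilutions (overall 0.1 nM to […], 0.5% DMSO) were applied to ET cells carrying a luciferase-neo HCV replicon, seeded a day earlier. After 48-72 hours, luciferase-based % inhibition was fitted with a Hill equation for EC50, and parallel WST-1 readings gave TC50.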

| Structure (SMILES) | EC50 [µM] |
| --- | --- |
| O=C(c1nc2c(C(F)(F)F)cc(-c3cscn3)cn2c1Cl)N1CC=C(c2ncccc2F)CC1 [Compound 120, (3-Chloro-6-thiazol-4-yl-8-trifluoromethyl-imidazo[1,2-a]pyridin-2-yl)-(3-fluoro-3′,6′-dihydro-2′H-[2,4′]bipyridinyl-1′-yl)-methanone] | 3.04 |
| O=C(c1nc2c(C(F)(F)F)cc(-c3ccoc3)cn2c1Cl)N1CCC(O)(c2nccs2)CC1 [Compound 224, (3-Chloro-6-furan-3-yl-8-trifluoromethyl-imidazo[1,2-a]pyridin-2-yl)-(4-hydroxy-4-thiazol-2-yl-piperidin-1-yl)-methanone] | 3.5 |
| O=C(c1nc2c(C(F)(F)F)cc(C3=CCCC3)cn2c1Cl)N1CC=C(c2nccs2)C1 [Compound 150, (3-Chloro-6-cyclopent-1-enyl-8-trifluoromethyl-imidazo[1,2-a]pyridin-2-yl)-(3-thiazol-2-yl-2,5-dihydro-pyrrol-1-yl)-methanone] | 0.00686 |
| CS(=O)(=O)N1CCCN(C(=O)c2nc3c(C(F)(F)F)cc(-c4ccoc4)cn3c2Cl)CC1 [Compound 326, (3-Chloro-6-furan-3-yl-8-trifluoromethyl-imidazo[1,2-a]pyridin-2-yl)-(4-methanesulfonyl-[1,4]diazepan-1-yl)-methanone] | 11.4 |
| COC(=O)C1CCCN1C(=O)Cc1cn2cc(-c3ccoc3)cc(C(F)(F)F)c2n1 (stereo not drawn) [Compound 307, 1-[2-(6-Furan-3-yl-8-trifluoromethyl-imidazo[1,2-a]pyridin-2-yl)-acetyl]-pyrrolidine-2-carboxylic acid methyl ester] | > 50 |
| N#Cc1c(-c2ccoc2)cc(C(F)F)c2nc(C(=O)N3CC=C(c4nccs4)C3)c(Cl)n12 [Compound 169, 3-Chloro-8-difluoromethyl-6-furan-3-yl-2-(3-thiazol-2-yl-2,5-dihydro-pyrrole-1-carbonyl)-imidazo[1,2-a]pyridine-5-carbonitrile] | 0.28 |
| CSCCC(NC(C)=O)C(=O)NCc1cn2cc(-c3ccoc3)cc(C(F)(F)F)c2n1 (stereo not drawn) [Compound 287, 2-Acetylamino-N-(6-furan-3-yl-8-trifluoromethyl-imidazo[1,2-a]pyridin-2-ylmethyl)-4-methylsulfanyl-butyramide] | > 50 |
| CS(=O)(=O)N(CCO)C1CN(C(=O)c2nc3c(C(F)(F)F)cc(-c4ccoc4)cn3c2Cl)C1 [Compound 144, N-[1-(3-Chloro-6-furan-3-yl-8-trifluoromethyl-imidazo[1,2-a]pyridine-2-carbonyl)-azetidin-3-yl]-N-(2-hydroxy-ethyl)-methanesulfonamide] | 7.55 |
| CC(O)C(NC(=O)c1cn2cc(-c3ccoc3)cc(C(F)(F)F)c2n1)C(N)=O (stereo not drawn) [Compound 282, 6-Furan-3-yl-8-trifluoromethyl-imidazo[1,2-a]pyridine-2-carboxylic acid (1-carbamoyl-2-hydroxy-propyl)-amide] | > 50 |
| O=C(c1nc2c(C(F)(F)F)cc(-c3ccoc3)cn2c1Cl)N1CC=C(c2cncc(F)c2)CC1 [Compound 203, (3-Chloro-6-furan-3-yl-8-trifluoromethyl-imidazo[1,2-a]pyridin-2-yl)-(5-fluoro-3′,6′-dihydro-2′H-[3,4′]bipyridinyl-1′-yl)-methanone] | 0.975 |
| O=C(Cc1cn2cc(-c3ccoc3)cc(C(F)(F)F)c2n1)N1CCN(c2nccs2)CC1 [Compound 109, 2-(6-Furan-3-yl-8-trifluoromethyl-imidazo[1,2-a]pyridin-2-yl)-1-(4-thiazol-2-yl-piperazin-1-yl)-ethanone] | > 50 |
| O=C(c1nc2c(C(F)(F)F)cc(-c3ccoc3)cn2c1Cl)N1CCC(NCC2CC2)CC1 [Compound 152, (3-Chloro-6-furan-3-yl-8-trifluoromethyl-imidazo[1,2-a]pyridin-2-yl)-[4-(cyclopropylmethyl-amino)-piperidin-1-yl]-methanone] | 19 |
